Test results as given in ChEMBL document CHEMBL1140560, “Potent, selective spiropyrrolidine pyrimidinetrione inhibitors of MMP-13” (Bioorg Med Chem Lett, 2007).
Several values for one entry are separate records, joined by “and”; a condition that tells them apart may be missing. Equal entries are not always repeated.

Tests used:
[1] = target: T1, Collagenase 3 (Homo sapiens, UniProt P45452); test: Inhibition of MMP13
[2] = Chemical stability assessed as half life in phosphate buffer saline at pH 7.2; assay type: physicochemical; settings: phosphate buffered saline
[3] = tested on: Rattus norvegicus; test: Toxicity in rat assessed as induction of fibroplasia at 800 mg/kg, bid; assay type: organism-based; set-up: dose 800 mg/kg; settings: in vivo
[4] = target: T1, Collagenase 3; test: Inhibition of MMP13-mediated bovine nasal cartilage degradation assessed as hydroxyprole release; assay type: functional, tissue-based
[5] = Half life in rat; assay type: ADME, organism-based; settings: in vivo
[6] = tested on: Rattus norvegicus; test: Toxicity in rat assessed as induction of fibroplasia at 100 mg/kg, bid; assay type: organism-based; set-up: dose 100 mg/kg; settings: in vivo
[7] = tested on: Rattus norvegicus; test: Toxicity in rat assessed as induction of fibroplasia at 30 mg/kg, bid; assay type: organism-based; set-up: dose 30 mg/kg; settings: in vivo
[8] = tested on: Hamster; test: Inhibition of human MMP13-induced cartilage damage in hamster at 10 mg/kg, po; assay type: functional; settings: Cricetinae
[9] = Cmax in rat at 800 mg/kg, bid; assay type: ADME, organism-based; set-up: dose 800 mg/kg; settings: in vivo
[10] = plasma Clearance in rat; assay type: ADME, organism-based
[11] = Cmax in rat at 300 mg/kg, bid; assay type: ADME, organism-based; set-up: dose 300 mg/kg; settings: in vivo
[12] = Volume of distribution at steady state in rat; assay type: ADME, organism-based; settings: in vivo, read-out: Vdss
[13] = tested on: Rattus norvegicus; test: Toxicity in rat assessed as induction of fibroplasia at 300 mg/kg, bid; assay type: organism-based; set-up: dose 300 mg/kg; settings: in vivo

Structure (SMILES) | IC50 [1] | other results
CCOCCC1(Oc2ccc(Oc3ccc(-c4nc(-c5cccc(F)c5)co4)cc3)cc2)C(=O)NC(=O)NC1=O | 0.35 nM | 
CCOCCC1(Oc2ccc(Oc3ccc(-c4nc(-c5cccc(C#N)c5)co4)cc3)cc2)C(=O)NC(=O)NC1=O | 0.52 nM | 
CCOCCC1(Oc2ccc(Oc3ccc(-c4nc(-c5ccc(C#N)cc5)co4)cc3)cc2)C(=O)NC(=O)NC1=O | 0.43 nM | 
CCOCCC1(Oc2ccc(Oc3ccc(F)cc3)cc2)C(=O)NC(=O)NC1=O | 0.6 nM | 
CCOCCC1(Oc2ccc(Oc3ccc(-c4nc5ccccc5[nH]4)cc3)cc2)C(=O)NC(=O)NC1=O | 0.49 nM | 
O=C1NC(=O)C2(CCCC(=O)N2c2ccc(Oc3ccc(F)cc3)nc2)C(=O)N1 | 11.7 nM | 
O=C1NC(=O)C2(CNC(=O)N2c2ccc(Oc3ccc(F)cc3)nc2)C(=O)N1 | 15.1 nM | 
CCOCCC1(Oc2ccc(Oc3ccc(-c4nc5ccc(Cl)cc5[nH]4)cc3)cc2)C(=O)NC(=O)NC1=O | 0.96 nM | 
O=C1NC(=O)C2(CCCN2c2ccc(Oc3ccc(-c4nc5ccc(Cl)cc5[nH]4)cc3)nc2)C(=O)N1 | 0.1 nM | 
CN1CC2(C(=O)NC(=O)NC2=O)N(c2ccc(Oc3ccc(F)cc3)nc2)C1=O | 12 nM | 
O=C1NC(=O)C2(CCC(=O)N2c2ccc(Oc3ccc(F)cc3)nc2)C(=O)N1 | 3.49 nM | half-life [2]: 91.2 h
O=C1NC(=O)C2(CCS(=O)(=O)N2c2ccc(Oc3ccc(F)cc3)nc2)C(=O)N1 | 138 nM | half-life [2]: 26.4 h
O=C1NC(=O)C2(CCCN2c2ccc(Oc3ccc(-c4nc(-c5ccccc5F)co4)cc3)nc2)C(=O)N1 | 0.16 nM | 
CCOCCC1(Oc2ccc(Oc3ccc(-c4nc5ccc(F)cc5[nH]4)cc3)cc2)C(=O)NC(=O)NC1=O | 0.4 nM | 
O=C1NC(=O)C2(CCCN2c2ccc(Oc3ccc(-c4nc(-c5cccc(F)c5)co4)cc3)nc2)C(=O)N1 | 0.09 nM | 
O=C1NC(=O)C2(CCCN2c2ccc(Oc3ccc(-c4nc5ccc(F)cc5[nH]4)cc3)nc2)C(=O)N1 | 0.08 nM | 
N#Cc1ccc(-c2coc(-c3ccc(Oc4ccc(N5CCCC56C(=O)NC(=O)NC6=O)cn4)cc3)n2)cc1 | 0.05 nM | 
N#Cc1cccc(-c2coc(-c3ccc(Oc4ccc(N5CCCC56C(=O)NC(=O)NC6=O)cn4)cc3)n2)c1 | 0.11 nM | 
CCOCCC1(Oc2ccc(Oc3ccc(F)cc3)nc2)C(=O)NC(=O)NC1=O | 8.9 nM | 
CCOCCC1(Nc2ccc(Oc3ccc(F)cc3)nc2)C(=O)NC(=O)NC1=O | 2.9 nM | 
O=C1NC(=O)C2(CCCN2c2ccc(Oc3ccc(-c4nc(-c5ccc(F)cc5)co4)cc3)nc2)C(=O)N1 | 0.12 nM | Activity [3]: Toxic; IC50 [4]: 12 nM; half-life [5]: 4.5 h; Activity [6]: Non-toxic; Activity [7]: Non-toxic; inhibition in vivo at 10 mg/kg [8]: > 80%; Cmax [9]: 52 µg/mL; clearance [10]: 3.9 mL/min/kg; Cmax [11]: 63 µg/mL; Vd [12]: 1.3 L/kg; Activity [13]: Toxic
O=C1NC(=O)C2(CCCN2c2ccc(Oc3ccc(-c4nc5ccccc5[nH]4)cc3)nc2)C(=O)N1 | 0.11 nM | 
O=C1NC(=O)C2(CCCN2c2ccc(Oc3ccc(F)cc3)nc2)C(=O)N1 | 1.6 nM and 1.57 nM | 
CC1(C)CC2(C(=O)NC(=O)NC2=O)N(c2ccc(Oc3ccc(F)cc3)nc2)C1=O | 7.33 nM | half-life [2]: 67.2 h
O=C1NC(=O)C2(CCCN2c2ccc(Oc3ccc(Br)cc3)nc2)C(=O)N1 | 0.6 nM | half-life [2]: > 24000 h
